Measured values from patent US20210085640A1, “ACYLATED CATECHIN POLYPHENOLS AND METHODS OF THEIR USE FOR THE TREATMENT OF CANCER” (Flagship Pioneering Innovations V, Inc., priority 2018, published 2021).

Columns and labels:
[1] = Stability in Simulated Gastric Fluid (SGF); format: in vitro ADME; conditions: SGF pH 1.6 with pepsin, 1 μM, 37° C.
Outline: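 Compound at 1 μM (from 1 mM DMSO stock) incubated at 37 °C in SGF, pH 1.6 NaCl/HCl buffer with FaSSIF powder and 0.1 mg/mL pepsin. Aliquots quenched with an equal volume of acetonitrile at T0 and regular intervals; degradation rate by LC/MS.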

[2] = Fecal Incubation Stability; format: in vitro ADME; conditions: fecal slurry, anaerobic, 1 or 10 μM
Experimental: Fecal Incubation Stability. This assay was used to assess the stability of an acylated active agent in a large intestine. All experiments were performed in an anaerobic chamber containing 90% nitrogen, 5% hydrogen and 5% carbon dioxide. Fecal matter in a slurry (15% VW is added to 96 well plates containing YCFA media or other suitable media (1.6 mL). Compounds were added to each individual well to reach a final analyte concentration of 1 or 10 μM, and the material was mixed by pipetting. At set time points a sample was removed, quenched with acetonitrile, and analyzed by LC/MS.

[3] = Stability in Simulated Intestinal Fluid (SIF); format: in vitro ADME; conditions: for Assay 2 (SIF) (% @ Remaining 4 hours): SIF pH 6.7 with pancreatin, 1 μM, 37° C.; for selective delivery to the upper intestine: conclusion drawn from Table 1 (SGF and SIF stability)
Experimental: SIF Stability of acylated active agents in Simulated Intestinal Fluid (SIF). This assay was used to assess the stability of an acylated active agent in a small intestine.
Phosphate buffer was prepared by dissolving 0.42 g of sodium hydroxide pellets and 3.95 g of monobasic sodium phosphate monohydrate and 6.19 g of sodium chloride in ultrapure water (MilliQ®, Millipore Sigma, Darmstadt, Germany). The pH was adjusted to 6.7 using aq. HCl and aq. NaOH, as necessary, and the solution was diluted with ultrapure water to produce 1 L of the pH 6.7 buffer.
112 mg FaSSIF powder (Biorelevant™, London, UK) was dissolved in 50 mL of the pH 6.7 buffer. 2 to 3 mL of the resulting solution were then added to 500 mg pancreatin (Millipore Sigma, Darmstadt, Germany). The resulting mixture was agitated by finger tapping the vessel containing the mixture until milky suspension formed. At this time, the remainder of the 50 mL FaSSiF/pH 6.7 buffer solution was added. The resulting suspension was flipped upside down 10 times to produce SIF, which was used fresh.
Test compounds were dissolved in DMSO stock to 1 mM. An aliquot of the DMSO stock solution was removed and diluted in the SIF media in 15 mL falcon tubes to produce a mixture with a tested compound concentration of 1 μM. A 1 mL aliquot was immediately removed and diluted once with 1 volume of acetonitrile for T0 timepoint. The mixture was sealed and agitated at 37° C. in an incubator. Aliquots (1 mL) were removed at regular intervals and immediately quenched by the addition of 1 volume of acetonitrile. The resulting samples were analyzed by LC/MS to determine degradation rates.

CD4^+CD25^+ Treg cells = assay: In vivo induction of CD4+CD25+ Treg cells in high-fat diet fed mice; conditions: C57BL/6 mice fed a high-fat diet; 6% in diet ad libitum; compared to EGCG, acetate, or their combination as separate compounds
Text: Acylated catechin polyphenols disclosed herein may be useful in modulating cancer markers and for treating cancer.

Row | SMILES | Assay 1 (SGF) (% Remaining @ 1 hours) [1] | Assay 3 (% Remaining at 24 h) [2] | Assay 2 (SIF) (% @ Remaining 4 hours) [3] | selective delivery to the upper intestine [3] | induction of CD4^+CD25^+ Treg cells (CD4^+CD25^+ Treg cells)
1 | CCCC(=O)O[C@@H]1[C@@H](OC(=O)CCC)[C@@H](Oc2ccc(N)cc2C(=O)O)OC[C@@H]1OC(=O)CCC [Compound 17, 5-amino-2-[(2R,3R,4S,5S)-3,4,5-tri(butanoyloxy)tetrahydropyran-2-yl]oxy-benzoic acid] | C (>75% of the tested compound remaining) | C (>75% of the tested compound remaining) | A (<25% of the tested compound remaining) | can be selectively delivered to the upper intestine | 
2 | CC(=O)Oc1cc(OC(C)=O)c2c(c1)O[C@H](c1cc(OC(C)=O)c(OC(C)=O)c(OC(C)=O)c1)[C@H](OC(=O)c1cc(OC(C)=O)c(OC(C)=O)c(OC(C)=O)c1)C2 [Compound 2, [(2R,3R)-5,7-diacetoxy-2-(3,4,5-triacetoxyphenyl)chroman-3-yl] 3,4,5-triacetoxybenzoate] | C (>75% of the tested compound remaining) | A (<25% of the tested compound remaining) | A (<25% of the tested compound remaining) | can be selectively delivered to the upper intestine | synergistic induction
3 | CC(=O)OC[C@H]1O[C@@H](Oc2c(C)c(C)c3c(c2C)CC[C@@](C)(CCC[C@H](C)CCC[C@H](C)CCCC(C)C)O3)[C@H](OC(C)=O)[C@@H](OC(C)=O)[C@@H]1OC(C)=O [Compound 19, [(2R,3R,4S,5R,6S)-3,4,5-triacetoxy-6-[(2R)-2,5,7,8-tetramethyl-2-[(4R,8R)-4,8,12-trimethyltridecyl]chroman-6-yl]oxy-tetrahydropyran-2-yl]methyl acetate] | C (>75% of the tested compound remaining) | C (>75% of the tested compound remaining) | C (>75% of the tested compound remaining) |  | 
4 | CCC(=O)Oc1cc(OC(=O)CC)c2c(=O)c(OC(=O)CC)c(-c3ccc(OC(=O)CC)c(OC(=O)CC)c3)oc2c1 [Compound 14, [4-[4-oxo-3,5,7-tri(propanoyloxy)chromen-2-yl]-2-propanoyloxy-phenyl] propanoate] | C (>75% of the tested compound remaining) | C (>75% of the tested compound remaining) | C (>75% of the tested compound remaining) |  | 
5 | CCCC(=O)Oc1cc(OC(=O)CCC)c2c(c1)O[C@H](c1cc(OC(=O)CCC)c(OC(=O)CCC)c(OC(=O)CCC)c1)[C@H](OC(=O)c1cc(OC(=O)CCC)c(OC(=O)CCC)c(OC(=O)CCC)c1)C2 [Compound 1, [(2R,3R)-5,7-di(butanoyloxy)-2-[3,4,5-tri(butanoyloxy)phenyl]chroman-3-yl] 3,4,5-tri(butanoyloxy)benzoate] | C (>75% of the tested compound remaining) | C (>75% of the tested compound remaining) | C (>75% of the tested compound remaining) |  | 
